We go through 22 compounds from patent US8796310B2, “Amino-pyridine-containing spleen tyrosine kinase (SYK) inhibitors” (Merck Sharp & Dohme Corp., priority 2011, dated 2014).

The target in data set [1] is recombinant human GST-Syk (Homo sapiens (Human), UniProt P43405). Put plainly: Homogeneous Time-Resolved Fluorescence (HTRF) assay for the recombinant human Syk enzyme. The format is biochemical. The settings on record: GST-hSyk 5 pM, ATP 25 μM, 10-dose titration 10 μM to 0.508 nM; values below lowest test concentration given as <0.50. The procedure:
Biological Assay Homogeneous Time-Resolved Fluorescence (HTRF) Assay for the Recombinant Human Syk Enzyme
A recombinant GST-hSyk fusion protein was used to measure potency of compounds to inhibit human Syk activity. […] Final volume of the reaction was 10 μL. Phosphorylation of the peptide was allowed to proceed for 45′ at rt. To quench the reaction and detect the phosphorylated product, 2 nM of a Europium-anti-phosphotyrosine antibody (Perkin Elmer #AD0161) and 70 nM SA-APC (Perkin-Elmer #CR130-100) were added together in 15 mM Tris pH 7.5, 40 mM EDTA, 0.01% tween 20. Final volume of the quenching solution was 10 μL. The resulting HTRF signal was measured after 30 minutes on a EnVision (Perkin-Elmer) reader using a time-resolved fluorescence protocol.
On the technique in general: In TR-FRET formats the signal depends on donor and acceptor labels being close together.

Data set [2] deals with PGD2. The note with it: dosed intranasally, phase I/II study, allergic rhinitis; cited from earlier work.
For data set [3] the following is noted: phase II clinical trial, allergic rhinitis; cited from earlier work.

Structures can show the parent of a compound that is named as a salt.

With `Cc1cc(Nc2cc(C3CCC3)ccn2)nc(-c2cnc(C3(O)CCCc4cc(C(=O)O)ccc43)s2)c1` (stereo not drawn) [Example 1K, 5-(5-{6-[(4-cyclobutylpyridin-2-yl)amino]-4-methylpyridin-2-yl}-1,3-thiazol-2-yl)-5-hydroxy-5,6,7,8-tetrahydronaphthalene-2-carboxylic acid], in data set [1], the IC50 – broadly, the concentration that inhibits the measured activity by half – is less than 0.5 nM.

As to `Cc1cc(Nc2cc(C(F)(F)F)ccn2)nc(-c2cnc([C@@]3(O)CCCc4cc(C(=O)Nc5nnn[nH]5)ccc43)s2)c1` [Example 22E, (R)-5-hydroxy-5-[5-(4-methyl-6-{[4-(trifluoromethyl)pyridin-2-yl]amino}pyridin-2-yl)-1,3-thiazol-2-yl]-N-1H-tetrazol-5-yl-5,6,7,8-tetrahydronaphthalene-2-carboxamide], the IC50 in data set [1] is less than 0.5 nM.

Regarding `Cc1cc(Nc2cc(C(F)(F)F)ccn2)nc(-c2cnc([C@@]3(O)CCCc4cc(C(=O)NS(=O)(=O)C5CC5)ccc43)s2)c1` [Example 22A, (R)-N-(cyclopropylsulfonyl)-5-hydroxy-5-[5-(4-methyl-6-{[4-(trifluoromethyl)pyridin-2-yl]amino}pyridin-2-yl)-1,3-thiazol-2-yl]-5,6,7,8-tetrahydronaphthalene-2-carboxamide], in data set [1], the IC50 is less than 0.5 nM.

For the compound `Cc1cc(Nc2cc(C3CC3)ccn2)nc(-c2cnc(C3(O)CCCc4cc(C(=O)O)ccc43)s2)c1` (stereo not drawn) [Example 1U, 5-(5-{6-[(4-cyclopropylpyridin-2-yl)amino]-4-methylpyridin-2-yl}-1,3-thiazol-2-yl)-5-hydroxy-5,6,7,8-tetrahydronaphthalene-2-carboxylic acid], the IC50 in data set [1] was less than 0.5 nM.

With `Cc1cc(Nc2cc(OC(C)(C)C)ccn2)nc(-c2cnc([C@@]3(O)CCCc4cc(C(=O)O)ccc43)s2)c1` [Example 1, (R)-5-(5-{6-[(4-Tert-butoxypyridin-2-yl)amino]-4-methylpyridin-2-yl}-1,3-thiazol-2-yl)-5-hydroxy-5,6,7,8-tetrahydronaphthalene-2-carboxylic acid, ammonia salt], the IC50 in data set [1] is less than 0.5 nM.

Regarding `Cc1cc(Nc2cc(OC3CCOC3)ccn2)nc(-c2cnc(C3(O)CCCc4cc(C(=O)O)ccc43)s2)c1` (stereo not drawn) [Example 1T, 5-hydroxy-5-[5-(4-methyl-6-{[4-(tetrahydrofuran-3-yloxy)pyridin-2-yl]amino}pyridin-2-yl)-1,3-thiazol-2-yl]-5,6,7,8-tetrahydronaphthalene-2-carboxylic acid], the IC50 in data set [1] was less than 0.5 nM.

On to `Cc1cc(Nc2cc(OC(C)C)ccn2)nc(-c2cnc(C3(O)CCCc4cc(C(=O)O)ccc43)s2)c1` (stereo not drawn) [Example 1R, 5-hydroxy-5-[5-(4-methyl-6-{[4-(propan-2-yloxy)pyridin-2-yl]amino}pyridin-2-yl)-1,3-thiazol-2-yl]-5,6,7,8-tetrahydronaphthalene-2-carboxylic acid], for which, in data set [1], the IC50 is less than 0.5 nM.

As to `Cc1cc(Nc2cc(C(F)(F)F)ccn2)nc(-c2cnc(C3(O)CCCCc4c(C(=O)O)cccc43)s2)c1` (single isomer, unassigned) [Example 15H, (R or S)-5-hydroxy-5-[5-(4-methyl-6-{[4-(trifluoromethyl)pyridin-2-yl]amino}pyridin-2-yl)-1,3-thiazol-2-yl]-6,7,8,9-tetrahydro-5H-benzo[7]annulene-1-carboxylic acid], the IC50 in data set [1] was less than 0.5 nM.

For `Cc1cc(Nc2cc(C(C)C)ccn2)nc(-c2cnc(C3(O)CCCc4cc(C(=O)O)ccc43)s2)c1` (stereo not drawn) [Example 1V, 5-hydroxy-5-[5-(4-methyl-6-{[4-(1-methylethyl)pyridin-2-yl]amino}pyridin-2-yl)-1,3-thiazol-2-yl]-5,6,7,8-tetrahydronaphthalene-2-carboxylic acid], the IC50 in data set [1] was less than 0.5 nM.

Take `Cc1ccnc(Nc2cc(C)cc(-c3cnc(C4(O)CCCc5cc(C(=O)O)ccc54)s3)n2)c1` (stereo not drawn) [Example 1H, 5-hydroxy-5-(5-{4-methyl-6-[(4-methylpyridin-2-yl)amino]pyridin-2-yl}-1,3-thiazol-2-yl)-5,6,7,8-tetrahydronaphthalene-2-carboxylic acid]: the IC50 in data set [1] was less than 0.5 nM.

For the compound `CCCc1ccnc(Nc2cc(C)cc(-c3cnc(C4(O)CCCc5cc(C(=O)O)ccc54)s3)n2)c1` (stereo not drawn) [Example 1M, 5-hydroxy-5-(5-{4-methyl-6-[(4-propylpyridin-2-yl)amino]pyridin-2-yl}-1,3-thiazol-2-yl)-5,6,7,8-tetrahydronaphthalene-2-carboxylic acid], the IC50 in data set [1] is less than 0.5 nM.

Take `Cc1cc(Nc2cc(-n3ccc(C)n3)ccn2)nc(-c2cnc(C3(O)CCCc4cc(C(=O)O)ccc43)s2)c1` (stereo not drawn) [Example 1J, 5-hydroxy-5-[5-(4-methyl-6-{[4-(3-methyl-1H-pyrazol-1-yl)pyridin-2-yl]amino}pyridin-2-yl)-1,3-thiazol-2-yl]-5,6,7,8-tetrahydronaphthalene-2-carboxylic acid]: in data set [1], the half-maximal inhibitory concentration (IC50) is less than 0.5 nM.

As to `Cc1cc(Nc2cc(C(F)F)ccn2)nc(-c2cnc(C3(O)CCCc4cc(C(=O)O)ccc43)s2)c1` (stereo not drawn) [Example 1A, 5-[5-(6-{[4-(difluoromethyl)pyridin-2-yl]amino}-4-methylpyridin-2-yl)-1,3-thiazol-2-yl]-5-hydroxy-5,6,7,8-tetrahydronaphthalene-2-carboxylic acid], the IC50 in data set [1] is less than 0.5 nM.

Take `Cc1cc(Nc2cc(C(F)(F)F)ccn2)nc(-c2cnc(C3(O)CCCCc4c(C(=O)O)cccc43)s2)c1` (single isomer, unassigned) [Example 15G, (R or S)-5-hydroxy-5-[5-(4-methyl-6-{[4-(trifluoromethyl)pyridin-2-yl]amino}pyridin-2-yl)-1,3-thiazol-2-yl]-6,7,8,9-tetrahydro-5H-benzo[7]annulene-1-carboxylic acid]: the IC50 in data set [1] was less than 0.5 nM.

In the case of `Cc1cc(Nc2cc(-n3cc(C)cn3)ccn2)nc(-c2cnc(C3(O)CCCc4cc(C(=O)O)ccc43)s2)c1` (stereo not drawn) [Example 1E, 5-hydroxy-5-[5-(4-methyl-6-{[4-(4-methyl-1H-pyrazol-1-yl)pyridin-2-yl]amino}pyridin-2-yl)-1,3-thiazol-2-yl]-5,6,7,8-tetrahydronaphthalene-2-carboxylic acid], the IC50 in data set [1] was less than 0.5 nM.

For `Cc1cc(Nc2cc(N3CCNCC3)ccn2)nc(-c2cnc(C3(O)CCCc4cc(C(=O)O)ccc43)s2)c1` (stereo not drawn) [Example 1D, 5-hydroxy-5-[5-(4-methyl-6-{[4-(piperazin-1-yl)pyridin-2-yl]amino}pyridin-2-yl)-1,3-thiazol-2-yl]-5,6,7,8-tetrahydronaphthalene-2-carboxylic acid], in data set [1], the IC50 is less than 0.5 nM.

Consider `Cc1cc(Nc2cc(N3CCN(CCN)CC3)ccn2)nc(-c2cnc(C3(O)CCCc4cc(C(=O)O)ccc43)s2)c1` (stereo not drawn) [Example 1C, 5-{5-[6-({4-[4-(2-aminoethyl)piperazin-1-yl]pyridin-2-yl}amino)-4-methylpyridin-2-yl]-1,3-thiazol-2-yl}-5-hydroxy-5,6,7,8-tetrahydronaphthalene-2-carboxylic acid], for which the IC50 in data set [1] was less than 0.5 nM.

Regarding `Cc1cc(Nc2cc(-n3cccn3)ccn2)nc(-c2cnc(C3(O)CCCc4cc(C(=O)O)ccc43)s2)c1` (stereo not drawn) [Example 1F, 5-hydroxy-5-[5-(4-methyl-6-{[4-(1H-pyrazol-1-yl)pyridin-2-yl]amino}pyridin-2-yl)-1,3-thiazol-2-yl]-5,6,7,8-tetrahydronaphthalene-2-carboxylic acid], the IC50 in data set [1] is less than 0.5 nM.

For the compound `CCc1ccnc(Nc2cc(C)cc(-c3cnc(C4(O)CCCc5cc(C(=O)O)ccc54)s3)n2)c1` (stereo not drawn) [Example 1P, 5-(5-{6-[(4-ethylpyridin-2-yl)amino]-4-methylpyridin-2-yl}-1,3-thiazol-2-yl)-5-hydroxy-5,6,7,8-tetrahydronaphthalene-2-carboxylic acid], the IC50 in data set [1] was less than 0.5 nM.

As to `Oc1cccc(Nc2ncc(F)c(Nc3cccc(O)c3)n2)c1` [Example R112], in data set [2], the clinical safety entry was “safe across a range of indicators” and the “decrease in PGD2” value is given as “statistically significant decrease”. Further, the efficacy versus placebo entry in data set [3] is “lack of efficacy”.

On to `CCOc1ccnc(Nc2cc(C)cc(-c3cnc(C4(O)CCCc5cc(C(=O)O)ccc54)s3)n2)c1` (stereo not drawn) [Example 1N, 5-(5-{6-[(4-ethoxypyridin-2-yl)amino]-4-methylpyridin-2-yl}-1,3-thiazol-2-yl)-5-hydroxy-5,6,7,8-tetrahydronaphthalene-2-carboxylic acid], for which, in data set [1], the IC50 was less than 0.5 nM.

`Cc1cc(Nc2cc(-c3nnc(C)o3)ccn2)nc(-c2cnc(C3(O)CCCc4cc(C(=O)O)ccc43)s2)c1` (stereo not drawn) [Example 1S, 5-hydroxy-5-[5-(4-methyl-6-{[4-(5-methyl-1,3,4-oxadiazol-2-yl)pyridin-2-yl]amino}pyridin-2-yl)-1,3-thiazol-2-yl]-5,6,7,8-tetrahydronaphthalene-2-carboxylic acid]: in data set [1], the IC50 was less than 0.5 nM.
